Entries after “also recorded” stand apart in the source; their conditions may differ.
Assays:
fibroblasts = assay: In vitro wound healing: scratch fibroblast migration and collagen gel contraction; format: cell-based, mouse; settings: listed as Dwn1
Description: The in vitro wound healing ability of Dwn1 was tested using a previously described method.
Fibroblasts were seeded into a 6-well plate and were synchronized as above. After 2 hr, scratch lines were created with a 20 μL plastic pipette and were washed with medium (n=5 per group). These scratched areas were captured by time-lapse photomicrography every hour from 0 to 24 hr. The number of migrated cells into the scratched area was counted at 12 and 24 hr and compared by one-way ANOVA with post hoc Holm test.
The floating collagen gel contraction assay was performed following the previously established protocol with some modifications (Ngo et al., 2006). A 500 μL aliquot of collagen gel mixture (Collagen Type I, Corning, Manassas, Va.) containing fibroblasts (50,000 cells) was applied to a 24-well plate (n=5 in each group) and placed at room temperature for 20 min. The solidified gels were transferred to a 100 mm diameter dish and cultured (37_C, 5% CO2 in a humidified incubator). The gel images were scanned by a scanner at 0, 6, 12, 24, 48, and 72 hr. The collagen gel area at each time point was measured (NIH ImageJ ver.1.51) and compared by two-way ANOVA, followed by the Tukey test at each time point.
As described herein, a small molecule inhibitor of Neuronal PAS domain 2 (Npas2), Dwn1, improves wound healing and minimizes scarring.

[1] = tested on: ligature-induced periodontitis; assay: Modified mouse ligature-induced periodontitis model (ligature removed at Day 14, evaluation at D28); format: in vivo; settings: topical to palatal gingiva once a week, listed as Dwn1
From the text: FIGS. 12A-12H show the effect of Dwn1 in the modified ligature-induced periodontitis in mice.
The selected highest hit compound Dwn1 (Reserpine) of Example 2 was applied to the well established ligature-induced periodontitis model with modification. After periodontitis was established at Day 14, the ligature was revoved from mouse molar mimicking non-invasive periodontits treatment: scaling and root planing (SRP) (FIGS. 12A-12D). Dwn1 was formulated in ABR LLC's propritery trans-epithelial deformable nano-scale vesicle (DNV) (57) and topically adminstered to the palatal gingival tissue once a week (FIG. 12E). […] The in vivo regenerative efficacy of Dwn1 (Reserpine) was strongly indicated.
From FDA Approved Drug Library (1120 compounds) and LOPAC Library (1280 compounds), a list of chemical compounds that modulated Npas2-LacZ expression was identified. […] Dwn1 was formulated for topical application to palatal gingiva. After 14 days of periodontitis induction, the ligature was removed and Dwn1 was topically applied to the palatal gingiva once a week (FIG. 16A).

[2] = tested on: Npas2-LacZ reporter gene (Npas2 expression); assay: High throughput screening of FDA Approved Drug Library for Npas2-LacZ reporter expression; format: cell-based, mouse; settings: Table 1
From the text: Mouse MSC carrying Npas2-LacZ reporter gene, as described by Hassan N, et al., PLoS One. 2017; 12(8):e0183359, which is incorporated by reference herein in its entirety, was immortalized using SV40 in order to accommodate a large-scale HTS. […] This cell system was used to screen FDA Approved Drug Library (1120 compounds). The same library was also screened for cell viability by Calcein AM Hoechst 33342 staining Cell migration assays using the Oris™ Pro Cell Migration Assay plate, as described by Joy M E et al., PloS one. 2014; 9(2):e88350, which is incorporated by reference herein in its entirety, was used for a high-throughput migration assay using human skin fibroblasts
The combined Z score was used to identify hit compounds (Table 1).

[3] = tested on: murine dermal fibroblasts; assay: Collagen synthesis by picrosirius red staining; format: cell-based, mouse; settings: day 7; 1 μM or 10 μM; vs control and 50 μg AA
Description: The effects of two different concentrations of Dwn1 (1 μM or 10 μM) on collagen synthesis in murine dermal fibroblast in vitro were examined Murine dermal fibroblasts were seeded into 24-well plates and cultured at 80%-90% confluency in medium supplemented with ascorbic acid (50 μg/mL) for 1, 3, and 7 days. The cells were then fixed with 10% neutral buffered formalin and stained with Picrosirius red (PolyScience, Niles, Ill.) for visualizing the collagen. AA: 1-ascorbic acid. OD: optical density. CTRL: cell treated with control medium without AA. […] (FIG. 35A) The absorption value was read in a spectrophotometer at 550 nm with a plate reader ([…] H1 plate reader) and compared by one-way ANOVA with the post hoc Holm test.

[4] = tested on: bone marrow stromal cells (BMSC); assay: In vitro mineralization / osteogenic differentiation of BMSC (MSC) in osteogenic medium; format: cell-based, mouse
From the text: FIGS. 7A-7B show the effect of Reserpine on bone marrow stromal cells osteogenic differentiation. […] Bars: Tukey analysis with p<0.05. […] The expression values were normalized with day 0 RNA.
FIGS. 11A-11D(b) show results of in vitro biological assays of Npas2 suppressing compound Dwn1 (Reserpine).
Reserpine was selected and its effect on bone marrow stromal cells (BMSC) was characterized for osteogenic differentiation.
To evaluate the mechanism of action involving Npas2, Reserpine was applied to WT, Npas2+/− and Npas2−/− mouse BMSC and evaluated for in vitro osteogenic differentiation.
The small molecule compound that scored the best combined z score in Example 2, Dwn1 (Reserpine) was selected for in vitro biological assays. […] BMP-2 has been used as a gold standard for accelerated osteogenic differentiation of MSC (48, 49). […] The expression of core clock gene Bmal1 was not affected by Dwn1 (FIG. 11C). Dwn1 increased in vitro mineralization of Npas2+/− MSC, but not of Npas2−/− MSC (FIG. 11D), implying that the effect of Dwn1 (Reserpine) was facilitated primarily by Npas2 suppression.

Npas2-LacZ expression = assay: Titration assay: effective concentration by LacZ expression in MSC Npas2-LacZ; format: cell-based, mouse; settings: serial dilution 100 μM to 0.2 nM
Description: Dwn1 was serially diluted from 100 μM to 0.2 nM and applied to MSC Npas2-LacZ. Effective concentration (EC) was determined by LacZ expression and inhibitory concentration (IC) was determined by cell viability using Calcein AM/Hoechst 33342 staining DwnC and Dwn1 are both Reserpine.
Dwn1 was identical to the previously identified DwnC compound from the LOPAC library. Dwn1 compound (Reserpine) was selected for serial dilution analysis. […] Dwn1 was used for preliminary in vitro and in vivo studies described below. Additional compounds suppressing Npas2 were identified (Table 2).
Dwn1 was serially diluted from 100 μM to 0.2 nM and applied to MSC Npas2-LacZ. EC was determined by LacZ expression and IC was determined by cell viability using Calcein AM/Hoechst 33342 staining.

`COC(=O)[C@H]1[C@H]2C[C@@H]3c4[nH]c5cc(OC)ccc5c4CCN3C[C@H]2C[C@@H](OC(=O)c2cc(OC)c(OC)c(OC)c2)[C@@H]1OC` [Reserpine] was tested, and the Collagen gel contraction (fibroblasts) was “accelerates”, the “Fibroblast migration in scratch wound healing assay” value (fibroblasts) was “accelerates” and the “Gingival epithelium / gingival defect” value [1] was “normalized gingival epithelium; also recorded: less visible”. For the same molecule, the “Alveolar bone regeneration (microCT bone height)” value ([1]; palatal side) was “increased bone height; also recorded: Alveolar bone regeneration was demonstrated; also recorded: alveolar bone loss was attenuated; also recorded: significant alveolar bone regeneration”, the “Gingival/periodontal collagen with Sharpey's fibers” value ([1]; picrosirius red) was “gingival/PDL connective tissue reconstruction; also recorded: appeared to be reconstructed; also recorded: normalized Sirius red stained gingival collagen arrangement; also recorded: collagen fibers were reorganized” and the “NPAS2 Z Score” value ([2]; HTS of FDA Drug Library) was −2.57. For the same molecule, the “NPAS Z × ViabilityZ” value ([2]; combined Z score (product)) was −10.77, the “Picrosirius red staining (collagen fiber formation and accumulation)” value [3] was “increase of a positive reaction” and the “In vitro mineralization compared with BMP-2 supplementation” value ([4]; Dwn1 1 μM vs BMP-2 100 ng/ml) was “equivalent to BMP-2 (100 ng/ml) supplementation”. The “In vitro mineralization / osteogenic differentiation” value ([4]; Npas2+/− BMSC/MSC) was “reproducibly observed”, the “In vitro mineralization / osteogenic differentiation” value ([4]; Npas2+/− BMSC/MSC, listed as Dwn1) was “responded; also recorded: increased” and the “In vitro mineralization / osteogenic differentiation” value ([4]; Npas2−/− BMSC/MSC) was “did not modulate”. The “In vitro mineralization / osteogenic differentiation” value ([4]; wild type BMSC/MSC, osteogenic medium, alizarin red) was “increased alizarin red positive in vitro mineralization; also recorded: dose-dependently accelerated in vitro mineralization; also recorded: reproducibly observed”, the “In vitro mineralization / osteogenic differentiation” value ([4]; wild type BMSC/MSC, osteogenic medium, alizarin red, listed as Dwn1) was “increased dose-dependently; also recorded: dose dependently increased; also recorded: dose-dependently increased” and the “Effective concentration (EC)” value (Npas2-LacZ expression) was 0.5 to 10 µM.
